{"source": "patent US20230085307A1", "about": "“PYRIDAZINONE COMPOUND AND HERBICIDE” (NISSAN CHEMICAL CORPORATION, priority 2019, published 2023)"}
{"tested_on": "velvetleaf", "test": "Test Example 4: herbicidal effect by soil treatment (Table 19, symbol M)", "assay_type": "in vivo, velvetleaf (Abutilon theophrasti)", "details": "amount of applied herbicide 320 g/ha", "procedure,_shortened": "(§1)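 Pre-emergence style soil spray: seeds under ~1.5 cm sterilized diluvial soil received a uniform coat of emulsion diluted to the predetermined herbicide amount. Greenhouse 25–30° C; readout at week three on previously defined criteria.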"}
{"smiles": "CCCC(=O)Oc1c(CC)nn(C)c(=O)c1-c1c(-c2ccc(C(F)(F)F)cc2)sc2ccc(F)cc12", "note": "[2-411]", "herbicidal effect, M: velvetleaf": "0 (Herbicidal rate of 5% or less (almost no effect))"}
{"smiles": "CCOc1ccccc1-c1sc2ccc(F)cc2c1-c1c(O)c(CC)nn(C)c1=O", "note": "[2-416]", "herbicidal effect, M: velvetleaf": "0 (Herbicidal rate of 5% or less (almost no effect))"}
{"tested_on": "rice flat sedge", "test": "Test Example 3: herbicidal effect by foliage application, Wagner pot (Table 18, symbol E)", "assay_type": "in vivo, rice flat sedge (Cyperus iria)", "details": "amount of applied herbicide 320 g/ha", "procedure,_shortened": "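Plants were sown in alluvial soil held under 0.1–0.5 cm standing water and grown 14 days in a greenhouse at 25–30 °C. An emulsifiable formulation, water-diluted to the set dose, was then sprayed onto the foliage, and effects were scored three weeks later using previously defined criteria.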"}
{"smiles": "CCCC(=O)Oc1c(CC)nn(C)c(=O)c1-c1c(-c2ccc(C(F)(F)F)cc2)sc2ccc(F)cc12", "note": "[2-411]", "herbicidal effect on E: rice flat sedge": "3 (Herbicidal rate of 40% or more and less than 70%)"}
{"smiles": "CCOc1ccccc1-c1sc2ccc(F)cc2c1-c1c(O)c(CC)nn(C)c1=O", "note": "[2-416]", "herbicidal effect on E: rice flat sedge": "4 (Herbicidal rate of 70% or more and less than 90%)"}
{"tested_on": "Japanese bulrush", "test": "Test Example 2: herbicidal activity, application during weed generation under submerged conditions (Table 17, symbol B)", "assay_type": "in vivo, Japanese bulrush (Schoenoplectus juncoides)", "details": "AAH 320 g/ha; application during weed generation, submerged conditions", "procedure,_shortened": "(§2)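 Wagner pot, alluvial soil, 4 cm flood; mixed sowing of all species; greenhouse 25° C.–30° C. Emulsifiable formulation, water-diluted to predetermined dose, applied to paddy water at 1–2 leaf stage. Effect rated at 3 wk using the earlier test's scoring criteria.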"}
{"smiles": "CCCC(=O)Oc1c(CC)nn(C)c(=O)c1-c1c(-c2ccc(C(F)(F)F)cc2)sc2ccc(F)cc12", "note": "[2-411]", "herbicidal effect rating, B: Japanese bulrush": "0 (Herbicidal rate of 5% or less (almost no effect))"}
{"smiles": "CCOc1ccccc1-c1sc2ccc(F)cc2c1-c1c(O)c(CC)nn(C)c1=O", "note": "[2-416]", "herbicidal effect rating, B: Japanese bulrush": "3 (Herbicidal rate of 40% or more and less than 70%)"}
{"tested_on": "Italian ryegrass", "test": "Test Example 4: herbicidal effect by soil treatment (Table 19, symbol K)", "assay_type": "in vivo, Italian ryegrass (Lolium multiflorum)", "details": "amount of applied herbicide 320 g/ha", "procedure,_shortened": "as §1"}
{"smiles": "CCCC(=O)Oc1c(CC)nn(C)c(=O)c1-c1c(-c2ccc(C(F)(F)F)cc2)sc2ccc(F)cc12", "note": "[2-411]", "herbicidal effect, K: Italian ryegrass": "0 (Herbicidal rate of 5% or less (almost no effect))"}
{"smiles": "CCOc1ccccc1-c1sc2ccc(F)cc2c1-c1c(O)c(CC)nn(C)c1=O", "note": "[2-416]", "herbicidal effect, K: Italian ryegrass": "0 (Herbicidal rate of 5% or less (almost no effect))"}
{"tested_on": "wild oat", "test": "Test Example 4: herbicidal effect by soil treatment (Table 19, symbol I)", "assay_type": "in vivo, wild oat (Avena fatua)", "details": "amount of applied herbicide 320 g/ha", "procedure,_shortened": "as §1"}
{"smiles": "CCCC(=O)Oc1c(CC)nn(C)c(=O)c1-c1c(-c2ccc(C(F)(F)F)cc2)sc2ccc(F)cc12", "note": "[2-411]", "herbicidal effect, I: wild oat": "0 (Herbicidal rate of 5% or less (almost no effect))"}
{"smiles": "CCOc1ccccc1-c1sc2ccc(F)cc2c1-c1c(O)c(CC)nn(C)c1=O", "note": "[2-416]", "herbicidal effect, I: wild oat": "0 (Herbicidal rate of 5% or less (almost no effect))"}
{"tested_on": "lambsquarters", "test": "Test Example 4: herbicidal effect by soil treatment (Table 19, symbol O)", "assay_type": "in vivo, lambsquarters (Chenopodium album)", "details": "amount of applied herbicide 320 g/ha", "procedure,_shortened": "as §1"}
{"smiles": "CCCC(=O)Oc1c(CC)nn(C)c(=O)c1-c1c(-c2ccc(C(F)(F)F)cc2)sc2ccc(F)cc12", "note": "[2-411]", "herbicidal effect, O: lambsquarters": "0 (Herbicidal rate of 5% or less (almost no effect))"}
{"smiles": "CCOc1ccccc1-c1sc2ccc(F)cc2c1-c1c(O)c(CC)nn(C)c1=O", "note": "[2-416]", "herbicidal effect, O: lambsquarters": "0 (Herbicidal rate of 5% or less (almost no effect))"}
{"tested_on": "wild oat", "test": "Test Example 5: herbicidal effect by foliage application, plastic box (Table 20, symbol I)", "assay_type": "in vivo, wild oat (Avena fatua)", "details": "foliage application, 320 g/ha, three weeks after application", "procedure,_shortened": "(§3)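 Plants were sown into sterilized diluvial soil under about 1.5 cm cover and kept in a greenhouse at 25° C. to 30° C. Fourteen days on, foliage received an even spray of the diluted emulsion. Herbicidal or crop effect was judged three weeks afterwards.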"}
{"smiles": "CCCC(=O)Oc1c(CC)nn(C)c(=O)c1-c1c(-c2ccc(C(F)(F)F)cc2)sc2ccc(F)cc12", "note": "[2-411]", "I: wild oat, herbicidal effect grade": "0 (Herbicidal rate of 5% or less (almost no effect))"}
{"smiles": "CCOc1ccccc1-c1sc2ccc(F)cc2c1-c1c(O)c(CC)nn(C)c1=O", "note": "[2-416]", "I: wild oat, herbicidal effect grade": "0 (Herbicidal rate of 5% or less (almost no effect))"}
{"tested_on": "Italian ryegrass", "test": "Test Example 5: herbicidal effect by foliage application, plastic box (Table 20, symbol K)", "assay_type": "in vivo, Italian ryegrass (Lolium multiflorum)", "details": "foliage application, 320 g/ha, three weeks after application", "procedure,_shortened": "as §3"}
{"smiles": "CCCC(=O)Oc1c(CC)nn(C)c(=O)c1-c1c(-c2ccc(C(F)(F)F)cc2)sc2ccc(F)cc12", "note": "[2-411]", "K: Italian ryegrass, herbicidal effect grade": "0 (Herbicidal rate of 5% or less (almost no effect))"}
{"smiles": "CCOc1ccccc1-c1sc2ccc(F)cc2c1-c1c(O)c(CC)nn(C)c1=O", "note": "[2-416]", "K: Italian ryegrass, herbicidal effect grade": "0 (Herbicidal rate of 5% or less (almost no effect))"}
{"tested_on": "lambsquarters", "test": "Test Example 5: herbicidal effect by foliage application, plastic box (Table 20, symbol O)", "assay_type": "in vivo, lambsquarters (Chenopodium album)", "details": "foliage application, 320 g/ha, three weeks after application", "procedure,_shortened": "as §3"}
{"smiles": "CCCC(=O)Oc1c(CC)nn(C)c(=O)c1-c1c(-c2ccc(C(F)(F)F)cc2)sc2ccc(F)cc12", "note": "[2-411]", "O: lambsquarters, herbicidal effect grade": "4 (Herbicidal rate of 70% or more and less than 90%)"}
{"smiles": "CCOc1ccccc1-c1sc2ccc(F)cc2c1-c1c(O)c(CC)nn(C)c1=O", "note": "[2-416]", "O: lambsquarters, herbicidal effect grade": "2 (Herbicidal rate of 20% or more and less than 40%)"}
{"tested_on": "late watergrass", "test": "Test Example 2: herbicidal activity, application during weed generation under submerged conditions (Table 17, symbol A)", "assay_type": "in vivo, late watergrass (Echinochloa oryzicola)", "details": "AAH 320 g/ha; application during weed generation, submerged conditions", "procedure,_shortened": "as §2"}
{"smiles": "CCCC(=O)Oc1c(CC)nn(C)c(=O)c1-c1c(-c2ccc(C(F)(F)F)cc2)sc2ccc(F)cc12", "note": "[2-411]", "herbicidal effect rating, A: late watergrass": "3 (Herbicidal rate of 40% or more and less than 70%)"}
{"smiles": "CCOc1ccccc1-c1sc2ccc(F)cc2c1-c1c(O)c(CC)nn(C)c1=O", "note": "[2-416]", "herbicidal effect rating, A: late watergrass": "2 (Herbicidal rate of 20% or more and less than 40%)"}
{"tested_on": "chickweed", "test": "Test Example 5: herbicidal effect by foliage application, plastic box (Table 20, symbol P)", "assay_type": "in vivo, common chickweed (Stellaria media)", "details": "foliage application, 320 g/ha, three weeks after application", "procedure,_shortened": "as §3"}
{"smiles": "CCCC(=O)Oc1c(CC)nn(C)c(=O)c1-c1c(-c2ccc(C(F)(F)F)cc2)sc2ccc(F)cc12", "note": "[2-411]", "P: chickweed, herbicidal effect grade": "5 (Herbicidal rate of 90% or more (almost completely withered))"}
{"smiles": "CCOc1ccccc1-c1sc2ccc(F)cc2c1-c1c(O)c(CC)nn(C)c1=O", "note": "[2-416]", "P: chickweed, herbicidal effect grade": "5 (Herbicidal rate of 90% or more (almost completely withered))"}
{"tested_on": "velvetleaf", "test": "Test Example 5: herbicidal effect by foliage application, plastic box (Table 20, symbol M)", "assay_type": "in vivo, velvetleaf (Abutilon theophrasti)", "details": "foliage application, 320 g/ha, three weeks after application", "procedure,_shortened": "as §3"}
{"smiles": "CCCC(=O)Oc1c(CC)nn(C)c(=O)c1-c1c(-c2ccc(C(F)(F)F)cc2)sc2ccc(F)cc12", "note": "[2-411]", "M: velvetleaf, herbicidal effect grade": "1 (Herbicidal rate of 5% or more and less than 20%)"}
{"smiles": "CCOc1ccccc1-c1sc2ccc(F)cc2c1-c1c(O)c(CC)nn(C)c1=O", "note": "[2-416]", "M: velvetleaf, herbicidal effect grade": "3 (Herbicidal rate of 40% or more and less than 70%)"}
{"tested_on": "barnyard grass", "test": "Test Example 5: herbicidal effect by foliage application, plastic box (Table 20, symbol H)", "assay_type": "in vivo, barnyard grass (Echinochloa crus-galli)", "details": "foliage application, 320 g/ha, three weeks after application", "procedure,_shortened": "as §3"}
{"smiles": "CCCC(=O)Oc1c(CC)nn(C)c(=O)c1-c1c(-c2ccc(C(F)(F)F)cc2)sc2ccc(F)cc12", "note": "[2-411]", "H: barnyard grass, herbicidal effect grade": "3 (Herbicidal rate of 40% or more and less than 70%)"}
{"smiles": "CCOc1ccccc1-c1sc2ccc(F)cc2c1-c1c(O)c(CC)nn(C)c1=O", "note": "[2-416]", "H: barnyard grass, herbicidal effect grade": "3 (Herbicidal rate of 40% or more and less than 70%)"}
{"tested_on": "windgrass", "test": "Test Example 5: herbicidal effect by foliage application, plastic box (Table 20, symbol L)", "assay_type": "in vivo, windgrass (Apera spica-venti)", "details": "foliage application, 320 g/ha, three weeks after application", "procedure,_shortened": "as §3"}
{"smiles": "CCCC(=O)Oc1c(CC)nn(C)c(=O)c1-c1c(-c2ccc(C(F)(F)F)cc2)sc2ccc(F)cc12", "note": "[2-411]", "L: windgrass, herbicidal effect grade": "0 (Herbicidal rate of 5% or less (almost no effect))"}
{"smiles": "CCOc1ccccc1-c1sc2ccc(F)cc2c1-c1c(O)c(CC)nn(C)c1=O", "note": "[2-416]", "L: windgrass, herbicidal effect grade": "0 (Herbicidal rate of 5% or less (almost no effect))"}
{"tested_on": "oval-leafed pondweed", "test": "Test Example 1: herbicidal activity, application before weed generation under submerged conditions (Table 16, symbol C)", "assay_type": "in vivo, oval-leafed pondweed (Monochoria vaginalis)", "details": "amount of applied herbicide 320 g/ha", "procedure,_shortened": "(§4)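 Submerged Wagner pots (alluvial soil, 4 cm water) sown with weed seeds and planted with 2.5-leaf rice seedlings; emulsifiable concentrate diluted in water applied to water surface on sowing day. Held in greenhouse at 25-30 °C; injury scored 0-5 by herbicidal rate after three weeks.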"}
{"smiles": "CCCC(=O)Oc1c(CC)nn(C)c(=O)c1-c1c(-c2ccc(C(F)(F)F)cc2)sc2ccc(F)cc12", "note": "[2-411]", "Herbicidal effect, C: oval-leafed pondweed": "0 (Herbicidal rate of 5% or less (almost no effect))"}
{"smiles": "CCOc1ccccc1-c1sc2ccc(F)cc2c1-c1c(O)c(CC)nn(C)c1=O", "note": "[2-416]", "Herbicidal effect, C: oval-leafed pondweed": "2 (Herbicidal rate of 20% or more and less than 40%)"}
{"tested_on": "persian speedwell", "test": "Test Example 4: herbicidal effect by soil treatment (Table 19, symbol R)", "assay_type": "in vivo, Persian speedwell (Veronica persica)", "details": "amount of applied herbicide 320 g/ha", "procedure,_shortened": "as §1"}
{"smiles": "CCCC(=O)Oc1c(CC)nn(C)c(=O)c1-c1c(-c2ccc(C(F)(F)F)cc2)sc2ccc(F)cc12", "note": "[2-411]", "herbicidal effect, R: persian speedwell": "2 (Herbicidal rate of 20% or more and less than 40%)"}
{"smiles": "CCOc1ccccc1-c1sc2ccc(F)cc2c1-c1c(O)c(CC)nn(C)c1=O", "note": "[2-416]", "herbicidal effect, R: persian speedwell": "0 (Herbicidal rate of 5% or less (almost no effect))"}
{"tested_on": "Japanese bulrush", "test": "Test Example 1: herbicidal activity, application before weed generation under submerged conditions (Table 16, symbol B)", "assay_type": "in vivo, Japanese bulrush (Schoenoplectus juncoides)", "details": "amount of applied herbicide 320 g/ha", "procedure,_shortened": "as §4"}
{"smiles": "CCCC(=O)Oc1c(CC)nn(C)c(=O)c1-c1c(-c2ccc(C(F)(F)F)cc2)sc2ccc(F)cc12", "note": "[2-411]", "Herbicidal effect, B: Japanese bulrush": "0 (Herbicidal rate of 5% or less (almost no effect))"}
{"smiles": "CCOc1ccccc1-c1sc2ccc(F)cc2c1-c1c(O)c(CC)nn(C)c1=O", "note": "[2-416]", "Herbicidal effect, B: Japanese bulrush": "3 (Herbicidal rate of 40% or more and less than 70%)"}
